Source: BindingDB's records for patent US11945784 (Cornell University, 2024)
pIC50: −log10 of the molar value.

What follows are compounds tested against Serine/threonine-protein kinase/endoribonuclease IRE1 (Homo sapiens, UniProt O75460) (assay: In Vitro FRET Assay).
Protocol: In vitro FRET assay was performed to evaluate the ability of select compounds to inhibit IRE1, the results of which are summarized in Table 3. To perform the in vitro FRET assay, 1× complete assay buffer (CAB; […], 50 mM sodium citrate pH 7.15, 1 mM magnesium acetate, 0.02% tween 20) was used to dilute SignalChem IRE1α protein to a final concentration of 2 nM. Selected compounds were serially diluted with DMSO in a non-binding black 384-well plate for a total of 15 ul in each well. 2 ul of the serially diluted compound or DMSO control were then added to new wells containing 98 ul of 1×CAB, for a total volume of 100 ul, 10 ul of which were then transferred to wells of a new plate. 5 ul of the diluted IRE1α was then added to each well. 5 ul of a […] was then added to each well. Fluorescence was then read over 30 minutes in kinetic mode (485/515 nm).Two RNA probes were used, XBP1 wildtype (SEQ ID NO: 2) which is able to be spliced by active IRE1α or XBP1 mutant (SEQ ID NO: 3) which is unable to be spliced. Each probe contained a 5′ 6-FAM modification and a 3′ IOWA Black FQ modification.A second FRET assay was performed to assess ATP-mediated inhibition. In this case, compounds and IRE1α were prepared and combined as discussed above, with the addition of ATP up to 1 mM final concentration. This mixture was incubated at room temperature for 60 minutes and then 5 ul of 400 nM XBP1 wildtype or mutant RNA probe was added. Plates were then read over 30 minutes in kinetic mode (485/515 nm) and rate of fluorescence increase calculated for different compound dilutions to determine IC50.

Chain of Serine/threonine-protein kinase/endoribonuclease IRE1 (O75460 whole entry): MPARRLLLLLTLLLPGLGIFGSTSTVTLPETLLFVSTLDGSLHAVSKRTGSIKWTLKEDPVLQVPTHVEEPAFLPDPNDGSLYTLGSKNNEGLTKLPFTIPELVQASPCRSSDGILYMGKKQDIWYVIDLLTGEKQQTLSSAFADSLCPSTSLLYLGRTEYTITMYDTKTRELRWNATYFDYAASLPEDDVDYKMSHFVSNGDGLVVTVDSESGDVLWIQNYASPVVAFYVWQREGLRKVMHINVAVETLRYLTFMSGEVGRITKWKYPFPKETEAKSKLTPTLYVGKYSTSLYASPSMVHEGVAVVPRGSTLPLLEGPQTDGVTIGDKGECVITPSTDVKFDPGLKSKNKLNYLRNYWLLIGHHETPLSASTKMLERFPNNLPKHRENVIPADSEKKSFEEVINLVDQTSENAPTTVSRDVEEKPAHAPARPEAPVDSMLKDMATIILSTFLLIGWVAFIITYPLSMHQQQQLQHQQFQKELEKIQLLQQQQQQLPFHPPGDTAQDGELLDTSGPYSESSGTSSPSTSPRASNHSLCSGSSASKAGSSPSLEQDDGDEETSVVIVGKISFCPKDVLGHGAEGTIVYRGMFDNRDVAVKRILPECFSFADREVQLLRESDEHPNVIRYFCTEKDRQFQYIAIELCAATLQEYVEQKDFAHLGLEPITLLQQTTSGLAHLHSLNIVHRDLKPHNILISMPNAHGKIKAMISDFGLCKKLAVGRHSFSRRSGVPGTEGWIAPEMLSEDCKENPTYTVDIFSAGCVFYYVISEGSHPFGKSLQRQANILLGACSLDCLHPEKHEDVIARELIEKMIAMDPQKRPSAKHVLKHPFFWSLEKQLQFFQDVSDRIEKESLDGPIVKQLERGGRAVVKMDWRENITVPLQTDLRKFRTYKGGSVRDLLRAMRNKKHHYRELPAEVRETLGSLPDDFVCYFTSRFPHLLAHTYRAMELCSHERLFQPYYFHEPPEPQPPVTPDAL

pIC50	Compound
> 9.00	COc1cc(NS(=O)(=O)c2cnccc2Cl)ccc1/C=C/c1cnc(NC2CCC(N(C)C)CC2)nc1 (configuration not stated) [US11945784, Compound 65]
> 9.00	CN(C)C1CCC(Nc2ncc(/C=C/c3ccc(NS(=O)(=O)c4ccc(F)cc4Cl)nc3)cn2)CC1 (configuration not stated) [US11945784, Compound 61]
> 9.00	NC1CCC(Nc2ncc(/C=C/c3ccc(NS(=O)(=O)c4ccccc4Cl)c(F)c3)cn2)CC1 (configuration not stated) [US11945784, Compound 3]
> 9.00	COc1nc(NS(=O)(=O)c2ccccc2Cl)c(F)cc1/C=C/c1cnc(NC2CCC(N)CC2)nc1 (configuration not stated) [US11945784, Compound 54]
> 9.00	CN(C)C1CCC(Nc2ncc(/C=C/c3ccc(NS(=O)(=O)c4cccc(Cl)c4Cl)nc3)cn2)CC1 (configuration not stated) [US11945784, Compound 63]
> 9.00	COc1nc(NS(=O)(=O)c2ccccc2Cl)ccc1/C=C/c1cnc(NC2CCC(N3CCSCC3)CC2)nc1 (configuration not stated) [US11945784, Compound 64]
> 9.00	COc1c(/C=C/c2cnc(NC3CCC(N(C)C)CC3)nc2)ccc(NS(=O)(=O)c2ccccc2Cl)c1F (configuration not stated) [US11945784, Compound 66]
> 9.00	CN(C)C1CCC(Nc2ncc(/C=C/c3ccc(NS(=O)(=O)c4ccccc4Cl)nn3)cn2)CC1 (configuration not stated) [US11945784, Compound 52]
> 9.00	COc1nc(NS(=O)(=O)c2ccccc2Cl)ccc1/C=C/c1cnc(NC2CCC(N3CCCCC3)CC2)nc1 (configuration not stated) [US11945784, Compound 60]
> 9.00	COc1nc(NS(=O)(=O)c2ccccc2Cl)ccc1/C=C/c1cnc(NC2CCC(N3CCOCC3)CC2)nc1 (configuration not stated) [US11945784, Compound 57]
> 9.00	COc1nc(NS(=O)(=O)c2cnccc2Cl)ccc1/C=C/c1cnc(NC2CCC(N(C)C)CC2)nc1 (configuration not stated) [US11945784, Compound 56]
> 9.00	NC1CCC(Nc2ncc(/C=C/c3ccc(NS(=O)(=O)c4ccccc4Cl)nn3)cn2)CC1 (configuration not stated) [US11945784, Compound 2]
> 9.00	CNC1CCC(Nc2ncc(/C=C/c3cc(F)c(NS(=O)(=O)c4ccccc4Cl)nc3OC)cn2)CC1 (configuration not stated) [US11945784, Compound 59]
> 9.00	Cc1nc(NS(=O)(=O)c2ccccc2Cl)c(F)cc1/C=C/c1cnc(NC2CCC(N)CC2)nc1 (configuration not stated) [US11945784, Compound 58]
> 9.00	Cc1nc(NS(=O)(=O)c2cnccc2Cl)ccc1/C=C/c1cnc(NC2CCC(N(C)C)CC2)nc1 (configuration not stated) [US11945784, Compound 62]
> 9.00	COc1cc(NS(=O)(=O)c2ccccc2Cl)c(F)cc1/C=C/c1cnc(NC2CCC(N(C)C)CC2)nc1 (configuration not stated) [US11945784, Compound 67]
> 9.00	CN(C)C1CCC(Nc2ncc(/C=C/c3ccc(NS(=O)(=O)c4cccc(F)c4Cl)nc3)cn2)CC1 (configuration not stated) [US11945784, Compound 68]
